Series [1] can be described thus: Multiple ascending dose (MAD, QD 7 days) oral pharmacokinetics of anle138b in healthy subjects, plasma. Format: in vivo, human. The procedure: This was a single-centre, double-blind, randomised, placebo-controlled single ascending dose (SAD) and multiple ascending dose (MAD) study of anle138b in doses of up to 300 mg per day in healthy subjects. In addition, the effect of food (FES) on the PK of anle138b in healthy subjects was examined using single doses of 150 mg. Participants were recruited from Quotient Sciences (Nottingham, UK) volunteer database.
(§1) As a safety precaution, sentinel dosing was performed for all SAD and MAD cohorts. In SAD, subjects received a single dose of anle138b or placebo after fasting from all food and drink (except water) for a minimum of 8 h prior to dosing. The dosing in the four SAD-cohorts were 50 mg, 100 mg, 200 mg and 300 mg of free anle138b equivalent, respectively. In the MAD part, participants received anle138b or placebo once daily (QD) for 7 days after fasting from all food and drink (except water) for a minimum of 8 h prior to dosing. The dosing in the three MAD-cohorts was 100 mg, 200 mg and 300 mg of free anle138b equivalent, respectively. Post dosing mouth and hand checks were conducted to ensure the capsules were swallowed. In-study decisions regarding continuation and dose escalation were made by the safety advisory committee (SAC) comprising the principal investigator, the sponsor's medical monitor and a PK expert. For dose escalation to proceed, data needed to be available from a minimum of 6 subjects per cohort with completed per protocol safety and PK assessments up to 48 h after dosing to ensure at least 4 subjects had received active IMP. The decision to proceed to the next higher dose level was based on safety, tolerability and available PK data to 48 h post-dose. The following data were required: Adverse events, vital signs, safety laboratory, ECG, physical examinations, plasma concentrations of anle138b with interim PK parameter estimations (Tmax, Cmax, AUC(0-24), AUC(0-tau), AUC(0-last) and T½, where applicable). Data were provided to the SAC in accordance with Quotient Sciences’ standard operating procedure (SOP) on interim dose decision-making and dose escalation.
Secondary outcome measures were the oral PK of single (SAD) and multiple (MAD) ascending doses of anle138b in the fasted state as well as the effect of co-administration with food on the PK of anle138b. To this end PK blood samples were taken at day 1 (and for MAD day 7) pre-dose and at 0·5, 1, 1·5, 2, 3, 4, 6, 8, 10, 12, 16 and 20 h post-dose, at days 2 to 6 pre-dose only (MAD) and 24, 30, 36 and 48 h post final dose. Analysis of anle138b in plasma was done at Aptuit, an Evotec company, in Verona, Italy. Time point of last quantifiable data was seen to increase with an increase in dose as follows: SAD: from the 50mg dose (subjects ranged between 8-24h) to the 300mg dose (subjects ranged between 36-48h). MAD: from the 100mg dose (subjects ranged between 8-36h) to the 300mg dose (subjects ranged between 20-48h). In FES, subjects ranged between 24-48h.
The study was exploratory and no formal sample size calculation was made. Based on experience from previous studies of similar design, eight subjects per cohort were enrolled for parts 1 (SAD) and 2 (MAD) and a total of twelve subjects for part 3 (FES). Populations and analysis sets were determined for safety and PK data after database lock using the criteria defined in the reporting and analysis plan. The safety population and safety analysis set for SAD and MAD were defined after database lock but prior to study unblinding. Statistical analysis and production of summary tables, figures and listings for all safety data (AEs, vital signs, ECGs and safety laboratory assessments) including changes from baseline as required in this study were performed using the statistical package SAS (v9·4). Additional statistics was provided for PK-related data including coefficient of variation (CV%), geometric mean, geometric CV%, and the number n of subjects that were included in the natural logarithmic transformation). […]

A short description of series [2]: Oral pharmacokinetics, overall statements across SAD, MAD and FES parts. Format: in vivo, human. The procedure: as §1, with “escalation. […]” for “escalation.”
Secondary outcome measures were the oral PK of single (SAD) and multiple (MAD) ascending doses of anle138b in the fasted state as well as the effect of co-administration with food on the PK of anle138b. […] Time point of last quantifiable data was seen to increase with an increase in dose as follows: SAD: from the 50mg dose (subjects ranged between 8-24h) to the 300mg dose (subjects ranged between 36-48h). […]

The conditions of series [3]: animal studies; cited from earlier work.

The structures appear in SMILES notation. Where two headings read alike, the source gives them in different places.

As for `Brc1cccc(-c2cc(-c3ccc4c(c3)OCO4)n[nH]2)c1` [anle138b, 3-(1,3-benzodioxol-5-yl)-5-(3-bromophenyl)-1H-pyrazole], the “Time point of last quantifiable data (range of subjects)” value in series [1] (MAD 100mg dose) lay in the range of 8 to 36 h; in series [1] (MAD 300mg dose), 20 to 48 h. Further, the “Effect of multiple dosing on Tmax” value in series [1] (MAD day 7 vs day 1) is reported as “unaffected by multiple dosing”. Also, in series [1] (highest dose tested (300 mg), multiple dosing), the “Exposure relative to the level required for full efficacy in PD mouse model (≥300 ng*h/ml)” value was “more than twice this exposure”. The Cmax (commonly the maximum level reached in the sampled fluid or tissue) in series [1] (human, plasma, oral, 100 mg, MAD Cohort A 100 mg QD, dosing day 1, fasted, geometric mean (CV%)) is 135 ng/mL; in series [1] (human, plasma, oral, 200 mg, MAD Cohort B 200 mg QD, dosing day 1, fasted, geometric mean (CV%)) it was 447 ng/mL; in series [1] (human, plasma, oral, 200 mg, MAD Cohort B 200 mg QD, dosing day 7, fasted, geometric mean (CV%)) it was 128 ng/mL; in series [1] (human, plasma, oral, 300 mg, MAD Cohort C 300 mg QD, dosing day 1, fasted, geometric mean (CV%)), 910 ng/mL; in series [1] (human, plasma, oral, 300 mg, MAD Cohort C 300 mg QD, dosing day 7, fasted, geometric mean (CV%)) it was 307 ng/mL. The AUC(0-t) in series [1] (human, plasma, oral, 100 mg, MAD Cohort A 100 mg QD, dosing day 1, fasted, geometric mean (CV%), read-out: AUC(0-24)) is 261 ng·h/mL; in series [1] (human, plasma, oral, 100 mg, MAD Cohort A 100 mg QD, dosing day 7, fasted, geometric mean (CV%), read-out: AUC(0-24)), 141 ng·h/mL; in series [1] (human, plasma, oral, 200 mg, MAD Cohort B 200 mg QD, dosing day 1, fasted, geometric mean (CV%), read-out: AUC(0-24)), 905 ng·h/mL; in series [1] (human, plasma, oral, 200 mg, MAD Cohort B 200 mg QD, dosing day 7, fasted, geometric mean (CV%), read-out: AUC(0-24)), 308 ng·h/mL; in series [1] (human, plasma, oral, 200 mg, multiple dosing at a daily dose of 200 mg, read-out: Exposure level (AUC0-24)) it was ≥ 300 ng·h/mL; in series [1] (human, plasma, oral, 300 mg, MAD Cohort C 300 mg QD, dosing day 1, fasted, geometric mean (CV%), read-out: AUC(0-24)), 2210 ng·h/mL. For the same compound, the AUC(0-t) in series [1] (human, plasma, oral, 300 mg, MAD Cohort C 300 mg QD, dosing day 7, fasted, geometric mean (CV%), read-out: AUC(0-24)) was 633 ng·h/mL. In addition, the half-life in series [1] (human, plasma, oral, MAD Cohort B 200 mg QD, dosing day 7, fasted, geometric mean (CV%), N=5) is ~10 h; in series [2] (human, plasma, oral, authors' conclusion from SAD data, read-out: true T½ of anle138b in human plasma) it was ≥ 10 h. Also, the “Day by which steady state exposure appeared to be reached” value in series [1] (trough (pre-dose) levels, repeated daily dosing) is ≤ 5 days. Further, the practical elimination half-time in series [2] (overall PK data) was ~12 h. The “Bioavailability (in words)” value in series [2] (overall PK data, fasted and fed conditions) is reported as “good bioavailability”. Besides, the “Levels of anle138b in the brain relative to plasma” value in series [3] is listed as 5 fold. The “Oral bioavailability (in words)” value in series [3] was “high oral bioavailability”.

These data come from publication PMC9065877, “Safety, tolerability and pharmacokinetics of the oligomer modulator anle138b with exposure levels sufficient for therapeutic efficacy in a murine Parkinson model: A randomised, double-blind, placebo-controlled phase 1a trial” (EBioMedicine, 2022).
